Test results taken from US12042493B2, “Pharmaceutical compounds for use in treating Huntington's disease” (ADEPTIO PHARMACEUTICALS LIMITED, priority 2018, dated 2024).
Entries after “also recorded” stand apart in the source; their conditions may differ.

Legend:
[1] = system: R6/2 mouse model of Huntington's disease; experiment: Survival rates in R6/2 mouse model of Huntington's disease; type: in vivo; settings: for Number of mice alive at the end of the study / Survival Rate (%): male R6/2 mice
Procedure: The objective of this study was to investigate the efficacy of (+)-α-dihydrotetrabenazine in the R6/2 mouse model of Huntington's disease. The mice were treated with (+)-α-dihydrotetrabenazine ((+)-α-DHTBZ), tetrabenazine (TBZ) or vehicle starting at 4 weeks of age and continuing until 13 weeks of age.
In total, 38 male R6/2 mice and 9 wild type (WT) littermates were used in the study. Mice were dosed from 4 weeks of age until 13 weeks of age. During the course of the study, the body weight of the animals was measured twice-α-week for the whole study duration. At the end of the study, the mice were sacrificed and only tail samples were collected.
All animal experiments were performed as specified in the license authorized by the national Animal Experiment Board of Finland and according to the National Institutes of Health (Bethesda, MD, USA) guidelines for the care and use of laboratory animals. In total, 38 male R6/2 mice and 9 wild type (WT) littermates were used in the study. Only mice with normal plasma bile acid levels were used for the study.
Animals were grouped as follows: • Group 1: 9 male wild-type (WT) mice treated with vehicle (p.o.) from 4-13 weeks of age • Group 2: 9 male R6/2 mice treated with vehicle (p.o.) from 4-13 weeks of age • Group 3: 10 male R6/2 mice treated with (+)-α-DHTBZ (1.5 mg/kg, p.o.) from 4-13 weeks of age • Group 4: 10 male R6/2 mice treated with (+)-α-DHTBZ (3 mg/kg, p.o.) from 4-13 weeks of age • Group 5: 9 male R6/2 mice treated with tetrabenazine (1.5 mg/kg, p.o.) from 4-13 weeks of age
(+)-α-DHTBZ, TBZ and vehicle were administered each day (10 ml/kg, p.o., QD) at approximately the same time of the day for all the mice, starting at 9 a.m.-11 a.m., when the daily dosing was performed at least 1 hour before the tests.
The mice were monitored until end point or the fulfilment of the euthanasia criteria.
A one-tailed, N-1 Two Proportion Test was used to determine statistically significant differences in the survival rates between the treatment groups.

[2] = system: R6/2 mouse model of Huntington's disease; experiment: Tremor evaluation in the Tremor Monitor chamber, R6/2 mice; type: in vivo; settings: 3.0 mg/kg p.o., pairwise t-test vs R6/2 Vehicle group, FIG. 3
Procedure: The objective of this study was to investigate the efficacy of (+)-α-dihydrotetrabenazine in the R6/2 mouse model of Huntington's disease. The mice were treated with (+)-α-dihydrotetrabenazine ((+)-α-DHTBZ), tetrabenazine (TBZ) or vehicle starting at 4 weeks of age and continuing until 13 weeks of age. […] The extent of tremor of the mice was evaluated at 7 and 13 weeks of age. […] The mice were placed inside a Tremor Monitor (San Diego Instruments, SDI) chamber for a 10 minute acclimatisation period, following which the tremor activity of the mice was measured for approximately 8 minutes. The recorded frequencies (1-64 hertz) of activity and the number of tremor events were captured electronically. Data were analysed by the Tremor Monitor software (San Diego Instruments) in a two part process. Using a Fast Fourier Transform (FFT), an output was provided showing the percentage of activity (energy) recorded at each frequency. […]

[3] = 1.5 mg/kg p.o. QD from 4-13 weeks of age
[4] = 3.0 mg/kg p.o. QD from 4-13 weeks of age

COc1cc2c(cc1OC)[C@H]1C[C@@H](O)[C@H](CC(C)C)CN1CC2 [(+)-α-DHTBZ, (2R, 3R, 11bR)-3-isobutul-9,10-dimethox-1,3,4,6,7,11b-hexahydro-2H-pyrido[2,1,a]isoquinolin-2-ol]
Survival rate / lifespan of R6/2 mice versus vehicle or tetrabenazine (in words) ([1]; R6/2 mice, at both 1.5 mg/kg and 3.0 mg/kg, listed as (+)-α-dihydrotetrabenazine): significantly longer than the survival rates of the R6/2 mice treated with vehicle or tetrabenazine; also recorded: prolonged lifespan compared to untreated control R6/2 mice and R6/2 mice that had been treated with tetrabenazine
Number of mice alive at the end of the study [1, 3]: 10
Survival Rate (%) [1, 3]: 100%
Number of mice alive at the end of the study [1, 4]: 10
Survival Rate (%) [1, 4]: 100%
Tremor Power Spectral Density at 12 Hz [2]: significantly different compared to the R6/2 Vehicle group

COc1cc2c(cc1OC)C1CC(=O)C(CC(C)C)CN1CC2 (racemic) [TBZ, 1,3,4,6,7,11b-hexahydro-9,10-dimethoxy-3-(2-methylpropyl)-2H-benzo(a)quinolizin-2-one, reference compound]
Number of mice alive at the end of the study [1, 3]: 7
Survival Rate (%) [1, 3]: 77.8%
